US7803801B2, “Aminopyridine compounds having Syk inhibitory activity” (Japan Tobacco, Inc., priority 2005, dated 2010)
Counter-ions that a name gives are not always drawn.

Target: GST-Syk Full Protein (human) (Homo sapiens, UniProt P43405)
Assay: Syk kinase inhibition test (HTRF method)
Format: biochemical
Details: Tables 1-x, compounds A; read-out: sykHTRF ave IC50
Procedure: Syk Kinase Inhibition Test (HTRF Method)
After the compounds were serially diluted with dimethylsulfoxide (DMSO), 10 μL of those 10-fold diluted with kinase buffer (20 mM HEPES pH 7.0, 10 mM MgCl2, 50 mM NaCl, 1 mM 2-ME, 0.05% BSA) was added to opti-plate HTRF-96 (Packard) (final DMSO concentration: 2%). 20 μL of a substrate solution (kinase buffer as mentioned above containing Syk Specific-Peptide Substrate Biot-EDPDYEWPSA-NH2 (Peptide Laboratory) 625 nM, 250 μM ATP (SIGMA) was added (final substrate concentration 250 nM, 100 μM ATP), and further 20 μL of an enzyme solution (kinase buffer as mentioned above containing GST-Syk Full Protein (human) 16 nM) (final concentration 6.4 nM) was added and the mixture was immediately stirred with a plate shaker to start enzyme reaction. After reacted at room temperature (20 to 25° C.) for 30 minutes, the enzyme reaction was terminated by adding 100 μL/well of a buffer for terminating and detecting the reaction (30 mM HEPES pH 7.0, 150 mM KF, 0.15% BSA, 0.075% Tween-20, 75 mM EDTA) containing HTRF reagent (5 μg/ml XL665-Streptavidin (CIS bio), 170 ng/ml Eu(K)-anti-PhosphoTyrosin, PT-66 (CIS bio)) (final concentration 20 mM HEPES pH 7.0, 100 mM KF, 0.1% BSA, 0.05% Tween-20, 50 mM EDTA). After allowed to stand still at room temperature for 1 hour, inhibitory effect of a compound against Syk kinase enzymatic activity was evaluated by measuring 665/620 fluorescence ratio to excitation light at 337 nm by ARVO (Wallac).

Row | Compound | IC50 [µM]
1 | Cc1ccnc(Nc2cccc(-c3cnc(N4CCC[C@H]4C(=O)NS(C)(=O)=O)s3)n2)c1 [Compound A-646] | 0.1 to 1
2 | Cc1ccnc(Nc2cccc(-c3cnc(N(C)CCC/C=C(\F)C(=O)O)s3)n2)c1 [Compound A-647, (Z)-2-fluoro-6-(N-methyl-N-{5-[6-(4-methylpyridin-2-ylamino)pyridin-2-yl]thiazol-2-yl}amino)hex-2-enoic acid dihydrochloride] | < 0.1
3 | O=C(O)CC1CC2CCC(C1)N2c1ncc(-c2cccc(Nc3cc(C(F)(F)F)ccn3)n2)s1 (centres unmarked) [Compound A-648, (8-{5-[6-(4-trifluoromethylpyridin-2-ylamino)pyridin-2-yl]thiazol-2-yl}-8-azabicyclo[3.2.1]oct-3-yl)acetic acid] | < 0.1
4 | Cc1ccnc(Nc2cccc(-c3cnc(N4C5CCC4CC(CC(=O)O)C5)s3)n2)c1 (centres unmarked) [Compound A-649, (8-{5-[6-(4-methylpyridin-2-ylamino)pyridin-2-yl]thiazol-2-yl}-8-azabicyclo[3.2.1]oct-3-yl)acetic acid] | < 0.1
5 | N#Cc1ccnc(Nc2cccc(-c3cnc(N4CCC(CC(=O)O)CC4)s3)n2)c1 [Compound A-650, (1-{5-[6-(4-cyanopyridin-2-ylamino)pyridin-2-yl]thiazol-2-yl}piperidin-4-yl)acetic acid dihydrochloride] | < 0.1
6 | CN(Cc1ccc(CC(=O)O)cc1)c1ncc(-c2cccc(Nc3cc(C(F)(F)F)ccn3)n2)s1 [Compound A-651, {4-[(N-methyl-N-{5-[6-(4-trifluoromethylpyridin-2-ylamino)pyridin-2-yl]thiazol-2-yl}amino)methyl]phenyl}acetic acid] | < 0.1
7 | Cc1ccnc(Nc2cccc(-c3cnc(N4CCC(CC(=O)O)CC4)s3)n2)c1 [Compound A-653, (1-{5-[6-(4-methylpyridin-2-ylamino)pyridin-2-yl]thiazol-2-yl}piperidin-4-yl)acetic acid] | < 0.1
8 | CN(c1ncc(-c2cccc(Nc3cc(C(F)(F)F)ccn3)n2)s1)C(C)(C)c1ccc(C(=O)O)cc1 [Compound A-654, 4-[1-methyl-1-(N-methyl-N-{5-[6-(4-trifluoromethylpyridin-2-ylamino)pyridin-2-yl]thiazol-2-yl}amino)ethyl]benzoic acid] | < 0.1
9 | CC(=CC(=O)O)CCCN(C)c1ncc(-c2cccc(Nc3cc(C(F)(F)F)ccn3)n2)s1 [Compound A-655, 3-methyl-6-(N-methyl-N-{5-[6-(4-trifluoromethylpyridin-2-ylamino)pyridin-2-yl]thiazol-2-yl}amino)hex-2-enoic acid dihydrochloride] | < 0.1
10 | CC(=CC(=O)O)CCCN(C)c1ncc(-c2cccc(Nc3cc(C)ccn3)n2)s1 [Compound A-656, 3-methyl-6-(N-methyl-N-{5-[6-(4-methylpyridin-2-ylamino)pyridin-2-yl]thiazol-2-yl}amino)hex-2-enoic acid dihydrochloride] | < 0.1
11 | CN(CCC/C=C/C(=O)O)c1ncc(-c2cccc(Nc3cc(C(F)(F)F)ccn3)n2)s1 [Compound A-657, (E)-6-(N-methyl-N-{5-[6-(4-trifluoromethylpyridin-2-ylamino)pyridin-2-yl]thiazol-2-yl}amino)hex-2-enoic acid dihydrochloride] | < 0.1
12 | Cc1ccnc(Nc2cccc(-c3cnc(N4CCC[C@H]4C(=O)NCCO)s3)n2)c1 [Compound A-658, N-(2-hydroxyethyl)-(S)-1-{5-[6-(4-methylpyridin-2-ylamino)pyridin-2-yl]thiazol-2-yl}pyrrolidine-2-carboxamide] | < 0.1
13 | Cc1ccnc(Nc2cccc(-c3cnc(N4CCC[C@H]4C(=O)N4CCC(O)CC4)s3)n2)c1 [Compound A-659] | 0.1 to 1
14 | Cc1ccnc(Nc2cccc(-c3cnc(N4CCC[C@H]4C(=O)NCC(C)(C)C)s3)n2)c1 [Compound A-660] | 0.1 to 1
15 | Cc1ccnc(Nc2cccc(-c3cnc(N4CCC(NC(=O)C5CCOCC5)CC4)s3)n2)c1 [Compound A-661] | 0.1 to 1
16 | Cc1ccnc(Nc2cccc(-c3cnc(N4CCC(NC(=O)C5CCC(O)CC5)CC4)s3)n2)c1 (centres unmarked) [Compound A-662] | 0.1 to 1
17 | Cc1ccnc(Nc2cccc(-c3cnc(N(CC(N)=O)C(C)C)s3)n2)c1 [Compound A-663, 2-(N-isopropyl-N-{5-[6-(4-methylpyridin-2-ylamino)pyridin-2-yl]thiazol-2-yl}amino)acetamide] | < 0.1
18 | Cc1ccnc(Nc2cccc(-c3cnc(CN4CCC[C@H]4C(=O)N(C)C)s3)n2)c1 [Compound A-664] | 0.1 to 1

Row | Compound | IC50 [µM]
19 | Cc1ccnc(Nc2cccc(-c3cnc(N(CC(=O)NCC(F)(F)F)C4CCCCC4)s3)n2)c1 [Compound A-665] | 0.1 to 1
20 | CNC(=O)[C@@H]1CCCN1Cc1ncc(-c2cccc(Nc3cc(C)ccn3)n2)s1 [Compound A-666] | 0.1 to 1
21 | Cc1ccnc(Nc2cccc(-c3cnc(CN4CCC[C@H]4C(N)=O)s3)n2)c1 [Compound A-667] | 0.1 to 1
22 | Cc1ccnc(Nc2cccc(-c3cnc(N(C)C(C(N)=O)C(C)C)s3)n2)c1 (centres unmarked) [Compound A-668, 3-methyl-2-(N-methyl-N-{5-[6-(4-methylpyridin-2-ylamino)pyridin-2-yl]thiazol-2-yl}amino)butylamide] | < 0.1
23 | Cc1ccnc(Nc2cccc(-c3cnc(N(CC(N)=O)C4CCCCC4)s3)n2)c1 [Compound A-669] | 0.1 to 1
24 | Cc1ccnc(Nc2cccc(-c3cnc(N4CCC(CC(C)(C)O)CC4)s3)n2)c1 [Compound A-670] | 0.1 to 1
25 | Cc1ccnc(Nc2cccc(-c3cnc(N(C)C4CCN(C(=O)C(C)(C)C)CC4)s3)n2)c1 [Compound A-671] | 0.1 to 1
26 | Cc1ccnc(Nc2cccc(-c3cnc(N(C)C4CCN(C(=O)C5CCC(O)CC5)CC4)s3)n2)c1 (centres unmarked) [Compound A-672] | 0.1 to 1
27 | Cc1ccnc(Nc2cccc(-c3cnc(N(CCO)C4CCCCC4)s3)n2)c1 [Compound A-673] | 0.1 to 1
28 | CNC(=O)C(C(C)C)N(C)c1ncc(-c2cccc(Nc3cc(C)ccn3)n2)s1 (centres unmarked) [Compound A-674] | 0.1 to 1
29 | Cc1ccnc(Nc2cccc(-c3cnc(N(C)C(C(=O)N4CCC(O)CC4)C(C)C)s3)n2)c1 (centres unmarked) [Compound A-675] | 0.1 to 1
30 | Cc1ccnc(Nc2cccc(-c3cnc(N(C)C(C(=O)NCC(F)(F)F)C(C)C)s3)n2)c1 (centres unmarked) [Compound A-676] | 0.1 to 1
31 | Cc1ccnc(Nc2cccc(-c3cnc(N4CCC(CCO)CC4)s3)n2)c1 [Compound A-677, 2-(1-{5-[6-(4-methylpyridin-2-ylamino)pyridin-2-yl]thiazol-2-yl}piperidin-4-yl)ethanol] | < 0.1
32 | Cc1ccnc(Nc2cccc(-c3cnc(N(CCCCCO)C(C)C)s3)n2)c1 [Compound A-678, 5-(N-isopropyl-N-{5-[6-(4-methylpyridin-2-ylamino)pyridin-2-yl]thiazol-2-yl}amino)pentan-1-ol] | < 0.1
33 | O=C(O)CC1CCN(c2ncc(-c3cccc(Nc4ncccn4)n3)s2)CC1 [Compound A-679] | 0.1 to 1
34 | O=C(O)CC1CCN(c2ncc(-c3cccc(Nc4cnccn4)n3)s2)CC1 [Compound A-680, (1-{5-[6-(pyrazin-2-ylamino)pyridin-2-yl]thiazol-2-yl}piperidin-4-yl)acetic acid] | < 0.1
35 | O=C(O)CC1CCN(c2ncc(-c3cccc(Nc4cc(CCO)ccn4)n3)s2)CC1 [Compound A-681, [1-(5-{6-[4-(2-hydroxyethyl)pyridin-2-ylamino]pyridin-2-yl}thiazol-2-yl)piperidin-4-yl]acetic acid dihydrochloride] | < 0.1
